# Measurements: PMC8381248 (Frontiers in Pharmacology, 2021)
# Several values for one entry are separate records, joined by “and”; a condition that tells them apart may be missing. Equal entries are not always repeated. Where two headings read alike, the source gives them in different places.
# Columns and labels:
# [1] = Pharmacokinetic study in rat plasma after intravenous and oral administration; type: in vivo, Sprague-Dawley (SD) rats; details: for Cmax / AUC(0-t) / Tmax / AUC(0-inf) / MRT inf / Cl_pred / HL_Lambda_z / Vz_pred: rat plasma; for AUC(0-inf): read-out: AUCINF_pred; for MRT inf: read-out: MRTINF_pred
# Method: Eighteen male SD rats were housed in the barrier rodent facilities to acclimatize for a week in animal quarters, which had air conditioning and an automatically controlled photoperiod of 12 h of light daily. Rats had free access to standard chow diet and water until 12 h prior to the beginning of the experiment, at which time only water was accessed freely. The rats were randomly divided into six groups, with three rats in each group.
# A series of calibration standard working solutions (20.0, 10.0, 2.0, 1.0, 0.2, 0.04, and 0.02 μg/ml) was prepared freshly by diluting the stock solution stepwise using ACN-water (70:30, v/v). […] The IS working solutions of 200 ng/ml of tolbutamide or 50 ng/ml of diclofenac sodium were prepared by dilution of the stock standard solution with acetonitrile solution. All the solutions were stored at 4°C and brought to room temperature before use.
# QC samples (3, 40, 800, and 1,600 ng/ml) were prepared separately. For PDG urine samples, the calibration standards were prepared by spiking 5 μL of the appropriate standard working solutions of PDG to 95 μL blank rat urine to prepare the final urine concentration of PDG ranging from 1 ng/ml to 2000 ng/ml. QC samples (3, 40, 800, and 1,600 ng/ml) were prepared separately. […] QC samples (15, 30, 400, and 1,600 ng/ml) were prepared separately.
# Blood samples were collected via orbital venous plexus puncture into heparinized microfuge tubes at intervals of 0, 0.083, 0.25, 0.5, 1, 2, 4, 8, 10, 24, and 30 h after administration. The plasma samples were obtained by centrifuging the blood samples at 6,000 rpm for 10 min at 4°C and storing them at −20°C until further analysis. For the plasma calibration standards, QC plasma samples, and the testing plasma samples, 40 µL of the plasma samples were extracted with 120 µL of IS working solution (tolbutamide) by vortex mixing for 1 min and at 4°C centrifugation for 10 min at 13,000 rpm. The supernatant was separated and evaporated under a gentle stream of nitrogen. The residue was reconstituted with 120 µL of 30% ACN followed by vortex mixing. Then, the solutions were centrifuged at 13,000 rpm for 10 min at 4°C.
# Linear gradient elution was performed with certain portions of 10 mM ammonium acetate-water solution containing 0.1% formic acid (mobile phase A) and methanol (mobile phase B). The detailed conditions have been described in Support Materials (Supplementary Table S5).
# In the ADME properties and pharmacokinetics studies, data are presented as mean ± standard deviation (SD). Statistically significant differences were analyzed by one-way ANOVA or Student’s t-test. The level of significance was set at p < 0.05. The LC/MS/MS data were collected and analyzed by Analyst 1.6.1 (AB Sciex). Pharmacokinetic analyses were performed by non-compartmental methods using Phoenix WinNolin version 6.3 (Pharsight Corporation, Mountain View, CA, United States).
# [2] = system: PE-constricted aortic rings; assay: Vasorelaxant effects on isolated PE-constricted aortic rings; parameters: species or system SD rats; details: 10^–6 M PE, n = 6
# Method: SD rats were anesthetized by exposure to ether, and the thoracic aorta was removed and immersed in Krebs-Henseleit (K-H) buffer ([Lee et al., 2013]) at 4°C. The connective tissues and fats around the aorta were carefully removed under the microscopes, and the blood was flushed. The aorta ring was cut into four sections approximately 3 mm long and suspended in organ chambers containing K-H buffer. The endothelium was also removed by gently rubbing the lumen of the vessel with a cotton swab. The aortic rings were placed in a 5 ml organ chambers of DMT multiwire myograph system (620M, Danish Myo Technology, Denmark) and were filled with K-H buffer aerated with 95% O2 and 5% CO2 at 37°C. The aortic rings were mounted on hooks connected to a tension transducer and a displacement device.
# The initial vessel tension was slowly adjusted to 15 mN and maintained balanced for 60 min. The buffer was renewed once every 15 min. After equilibration, the vessel viability was pre-constricted by exposing the aortic rings to 60 mM KCl for 10 min ([Ding et al., 2019]). Then, the K-H buffer was continuously renewed to elute and restore the initial tension of the vascular ring to assay the vascular activity. The pre-treated operation was repeated two times, where the constriction amplitude after each KCl stimulation to reach the previous constriction amplitude was taken as the criterion, before the experiment continued. Subsequently, 10^–6 M PE was added to contract the blood vessel. After the constriction was stable, different concentrations of Ach (10^−9–10^–5 M) were used to dilate the vessels. Then, the vasorelaxation degree could be calculated with different Ach concentrations, as the following equation: Vasorelaxation degree (%)=Maxium constriction tension induced by PE−Minium diastolic tension induced by Ach/Maxium constriction tension induced by PE−Resting tension×100% (10) When the vasorelaxation degree corresponding to Ach (10^–5 M) is greater than 80%, the vascular endothelium is considered intact and functional. The endothelium is considered to be removed with a vasorelaxation degree of less than 20% ([Lee et al., 2013]). Endothelium-intact and endothelium-denuded aortic rings from the same aorta were tested.
# After equilibration, the endothelium-intact and the endothelium-denuded aortic rings were pre-constricted with 10^–6 M PE in the K-H buffer system.
# After equilibration, the endothelium-intact aortic rings were pre-constricted with 10^–6 M PE in the K-H buffer system. […] Then, the corresponding vasoconstrictive responses were examined and recorded.
# In the vasorelaxant effects investigations, all the data are presented as mean ± SEM. Statistical analysis was performed using two-way ANOVA followed by Fisher’s least significant difference (LSD) test. Values at p < 0.05 were considered statistically significant.
# [3] = male, Sprague-Dawley, IV 5 mg/kg, n = 3
# [4] = male, Sprague-Dawley, PO 40 mg/kg, n = 3
smiles,measurement,setting,value
"COc1cc(C2OCC3C(c4ccc(OC5OC(CO)C(O)C(O)C5O)c(OC)c4)OCC23)ccc1OC1OC(CO)C(O)C(O)C1O (single isomer, unassigned; (+)) [PDG, (+)-1-pinoresinol 4,4′-di-O-β-D-glucopyranoside]",bioavailability,"[1]; male, Sprague-Dawley, plasma, rat, from AUClast of IV 5 mg/kg and PO 40 mg/kg, read-out: absolute oral bioavailability (F%)",~0.19%
same,Cmax,"[1]; male, Sprague-Dawley, rat, plasma, iv, 5 mg/kg, IV 5 mg/kg, n = 3, read-out: Cmax",13300 ng/mL
same,Cmax,"[1]; male, Sprague-Dawley, rat, plasma, iv, 5 mg/kg, IV 5 mg/kg, ng/ml value expressed in molar units, read-out: Cmax",19.6 µM
same,Cmax,"[1]; male, Sprague-Dawley, rat, plasma, po, 40 mg/kg, PO 40 mg/kg, n = 3, read-out: Cmax",45.3 ± 37.5 ng/mL
same,Cmax,"[1]; male, Sprague-Dawley, rat, plasma, po, 40 mg/kg, PO 40 mg/kg, ng/ml value expressed in molar units, read-out: Cmax",0.0665 µM
same,AUC(0-t),[1]; [3],7470 ng·h/mL
same,Tmax,[1]; [3],6 min
same,AUC(0-inf),[1]; [3],7470 ng·h/mL
same,MRT inf,[1]; [3],30.6 ± 5.4 min
same,AUC(0-t),[1]; [4],113 ± 122 ng·h/mL
same,Tmax,[1]; [4],30 min
same,AUC(0-inf),[1]; [4],121 ± 129 ng·h/mL
same,MRT inf,[1]; [4],114 ± 57 min
same,Cl_pred,"[1]; IV 5 mg/kg, n = 3",0.69 ± 0.15 L/h/kg
same,HL_Lambda_z,"[1]; IV 5 mg/kg, n = 3",2.0 ± 0.5 h
same,Vz_pred,"[1]; IV 5 mg/kg, n = 3",1.98 ± 0.43 L/kg
same,Cmax,"[1]; IV 5 mg/kg, n = 3, 5 mg/kg","13,328.57 ± 1,625.4 ng/ml"
same,Cl_pred,"[1]; PO 40 mg/kg, n = 3",653.9 ± 492.6 L/h/kg
same,Vz_pred,"[1]; PO 40 mg/kg, n = 3",777.0 ± 392.4 L/kg
same,HL_Lambda_z,"[1]; PO 40 mg/kg, n = 3, 40 mg/kg",1.15 h and 1.15 ± 0.75 h
same,vasorelaxant effect on PE-constricted aortic rings,[2]; increasing concentration 25–200 μM,concentration-dependent vasorelaxation
same,"vasorelaxation degree, endothelium-denuded versus endothelium-intact group",[2]; PINL difference at 50–100 μM,not statistically significant
